According to patent US6982260B1, “Quinazolines and their use for inhibiting cyclin-dependent kinase enzymes” (Warner-Lambert Company, priority 1999, dated 2006):
Where two headings read alike, the source gives them in different places.

Assays:
cdc2/cyclinB = cdc2/cyclinB (Homo sapiens, UniProt P06493); experiment: cdc2/cyclinB kinase assay (Table 1, CdkB); type: biochemical; conditions: 32P incorporation into retinoblastoma, 25° C., 15 minutes
Procedure: (§1) All components except the ATP were added to the wells, and the plate was placed on a plate mixer for 2 minutes. The reaction was begun by addition of [^32P]ATP, and the plate was incubated at 25° C. for 15 minutes. The reaction was terminated by addition of 0.1 mL of 20% TCA. The plate was kept at 4° C. for at least 1 hour to allow the substrate to precipitate. The wells were then washed five times with 0.2 mL of 10% TCA and ^32P incorporation determined with a beta plate counter (Wallac Inc., Gaithersburg, Md.).

cdk2/A = cdk2/A (Homo sapiens, UniProt P24941); experiment: cdk2/A kinase assay; type: biochemical; conditions: 32P incorporation into retinoblastoma, 25° C., 15 minutes; read-out: Cdk2A IC50
Procedure: as §1

cdk2/cyclinE = cdk2/cyclinE (Homo sapiens, UniProt P24941); experiment: cdk2/cyclinE kinase assay; type: biochemical; conditions: 32P incorporation into retinoblastoma, 25° C., 15 minutes; read-out: Cdk2E IC50
Procedure: as §1

cdk4/D = cdk4/D (Homo sapiens, UniProt P11802); experiment: Cyclin-Dependent Kinase 4 (cdk4) Assay; type: biochemical
Procedure: As noted above, the compounds of this invention are potent inhibitors of cyclin-dependent kinases, and accordingly, are useful in treating and preventing neurodegenerative disorders, atherosclerosis, and other cell proliferative disorders like cancer. […] A typical assay, for instance, measures inhibitory activity against the cyclin D dependent kinase 4 enzyme (cdk4/D). […] The cdk4 assay was carried out as follows.
Cyclin-Dependent Kinase 4 (cdk4) Assay
Enzyme assays for IC50 determinations (Table 1 above) and kinetic evaluation were performed in 96 well filter plates (Millipore MADVN6550). The total volume was 0.1 mL containing a final concentration of 20 mM TRIS (tris[hydroxymethyl]aminomethane), at pH 7.4, 50 mM NaCl, 1 mM dithiothreitol, 10 mM MgCl2, 25 μM ATP containing 0.25 μCi of [^32P]ATP, 20 ng of cdk4, 1 μg of retinoblastoma, and appropriate dilutions of a compound of the present invention. All components except the ATP were added to the wells, and the plate was placed on a plate mixer for 2 minutes. The reaction was started by adding [^32P]ATP and the plate was incubated at 25° C. for 15 minutes. The reaction was terminated by addition of 0.1 mL of 20% trichloroacetic acid (TCA). The plate was kept at 4° C. for at least 1 hour to allow the substrate to precipitate. The wells were then washed five times with 0.2 mL of 10% TCA and ^32P incorporation was determined with a beta plate counter (Wallac Inc., Gaithersburg, Md.).

[1] = 25 μM ATP, retinoblastoma substrate, 25° C., 15 minutes, read-out: Cdk4 IC50

cdk4/D, sequence (P11802 whole entry, species assumed): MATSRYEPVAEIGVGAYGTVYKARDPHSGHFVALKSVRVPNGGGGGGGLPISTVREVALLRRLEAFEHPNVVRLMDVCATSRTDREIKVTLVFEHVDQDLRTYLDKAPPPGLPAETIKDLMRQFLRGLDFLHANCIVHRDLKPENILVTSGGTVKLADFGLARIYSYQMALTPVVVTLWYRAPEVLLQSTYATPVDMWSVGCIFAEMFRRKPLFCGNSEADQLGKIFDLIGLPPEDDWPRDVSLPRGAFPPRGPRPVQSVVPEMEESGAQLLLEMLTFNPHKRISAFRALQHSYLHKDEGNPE
cdk4/D, sequence (P24385 whole entry partner, species assumed): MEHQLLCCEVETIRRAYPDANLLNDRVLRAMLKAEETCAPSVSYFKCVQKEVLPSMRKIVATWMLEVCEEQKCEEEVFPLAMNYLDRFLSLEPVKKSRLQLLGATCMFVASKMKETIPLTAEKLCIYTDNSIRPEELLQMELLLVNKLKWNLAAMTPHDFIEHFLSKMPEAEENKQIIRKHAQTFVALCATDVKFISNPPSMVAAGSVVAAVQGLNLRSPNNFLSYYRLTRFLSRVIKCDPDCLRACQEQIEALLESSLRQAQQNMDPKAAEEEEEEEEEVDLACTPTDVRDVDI
cdc2/cyclinB, sequence (P06493 whole entry, species assumed): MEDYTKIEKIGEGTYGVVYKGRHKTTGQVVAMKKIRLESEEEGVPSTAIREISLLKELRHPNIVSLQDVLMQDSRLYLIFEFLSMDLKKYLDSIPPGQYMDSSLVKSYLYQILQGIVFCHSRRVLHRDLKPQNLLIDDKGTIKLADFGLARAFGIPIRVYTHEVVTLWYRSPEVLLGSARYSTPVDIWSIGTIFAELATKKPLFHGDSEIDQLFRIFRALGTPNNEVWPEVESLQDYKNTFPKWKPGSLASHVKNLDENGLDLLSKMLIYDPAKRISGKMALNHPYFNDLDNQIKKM
cdc2/cyclinB, sequence (P14635 whole entry partner, species assumed): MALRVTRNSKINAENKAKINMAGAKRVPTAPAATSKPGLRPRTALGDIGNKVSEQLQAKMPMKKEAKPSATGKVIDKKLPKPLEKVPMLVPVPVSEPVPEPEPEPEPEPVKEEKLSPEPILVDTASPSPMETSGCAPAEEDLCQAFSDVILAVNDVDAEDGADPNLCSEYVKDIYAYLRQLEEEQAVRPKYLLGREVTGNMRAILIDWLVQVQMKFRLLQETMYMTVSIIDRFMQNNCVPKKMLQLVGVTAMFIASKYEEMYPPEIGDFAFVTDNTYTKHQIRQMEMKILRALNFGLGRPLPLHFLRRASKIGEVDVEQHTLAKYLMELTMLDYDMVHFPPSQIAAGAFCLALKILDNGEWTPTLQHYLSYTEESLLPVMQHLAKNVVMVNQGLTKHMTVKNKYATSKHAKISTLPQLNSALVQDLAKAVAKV

IC50 (cdk4/D; [1]) [nM]	Molecule	melting point	IC50 (cdc2/cyclinB) [nM]	IC50 (cdk2/A) [nM]	IC50 (cdk2/cyclinE) [nM]	IC50 (cdk4/D) [nM]
–	COc1ccc2cnc(Nc3ccccc3)nc2c1C1CCCC1 [Example 17, (8-Cyclopentyl-7-methoxy-quinazolin-2-yl)-phenyl-amine]	187 to 188 °C	–	–	–	–
–	COc1ccc2cnc(Nc3ccccc3)nc2c1C(C)C [Example 19, (8-Isopropyl-7-methoxy-quinazolin-2-yl)-phenyl-amine]	172 to 173 °C	1040	253	1080	125
–	COc1ccc2cnc(Nc3ccc(N4CCN(C(C)=O)CC4)cc3)nc2c1C1CCCC1 [Example 20, 1-{4-[4-(8-Cyclopentyl-7-methoxy-quinazolin-2-ylamino)-phenyl]-piperazin-1-yl}-ethanone]	247 to 249 °C	> 5000	50	265	2
–	COc1ccc2cnc(Nc3ccc(N4CCCCC4)cc3)nc2c1C(C)C [Example 21, (8-Isopropyl-7-methoxy-quinazolin-2-yl)-(4-piperidin-1-yl-phenyl)-amine]	166 to 167 °C	> 5000	410	3100	52
–	COc1ccc2cnc(Nc3ccc(N4CCCC4)cc3)nc2c1C(C)C [Example 22, (8-Isopropyl-7-methoxy-quinazolin-2-yl)-(4-pyrrolidin-1-yl-phenyl)-amine]	188 to 190 °C	> 5000	1600	> 5000	560
–	COc1ccc2cnc(Nc3ccc(N4CCCCC4)cc3)nc2c1C1CCCC1 [Example 23, (8-Cyclopentyl-7-methoxy-quinazolin-2-yl)-(4-piperidin-1-yl-phenyl)-amine]	212 to 214 °C	> 5000	384	> 5000	11
–	COc1ccc2cnc(Nc3ccc(N4CCCC4)cc3)nc2c1C1CCCC1 [Example 24, (8-Cyclopentyl-7-methoxy-quinazolin-2-yl)-(4-pyrrolidin-1-yl-phenyl)-amine]	240 to 242 °C	> 5000	–	–	1750
63	COc1ccc2cnc(Nc3ccc(N4CCN(C(=O)OC(C)(C)C)CC4)cc3)nc2c1C(C)C [Example 25, 4-[4-(8-Isopropyl-7-methoxy-quinazolin-2-ylamino)-phenyl]-piperazine-1-carboxylic Acid Tert-butyl Ester]	173 to 175 °C	10200	1620	10000	–
51	COc1ccc2cnc(Nc3ccc(N4CCN(C(=O)OC(C)(C)C)CC4)cc3)nc2c1C1CCCC1 [Example 26, 4-[4-(8-Cyclopentyl-7-methoxy-quinazolin-2-ylamino)-phenyl]-piperazine-1-carboxylic Acid Tert-butyl Ester]	183 to 184 °C	4200	646	–	–
–	CC(C)c1c(O)ccc2cnc(Nc3ccccc3)nc12 [Example 29, 8-Isopropyl-2-phenylamino-quinazolin-7-ol]	103 to 104 °C	813	250	550	325
–	COc1ccc2cnc(Nc3ccc(N4CCN(C(C)=O)CC4)cc3)nc2c1C(C)C [Example 33, 1-{4-[4-(8-Isopropyl-7-methoxy-quinazolin-2-ylamino)-phenyl]-piperazin-1-yl}-ethanone]	197 to 198 °C	–	–	900	25
–	COc1ccc2cnc(Nc3ccc(N4CCNCC4)cc3)nc2c1C(C)C [Example 34, (8-Isopropyl-7-methoxy-quinazolin-2-yl)-(4-piperazin-1-yl-phenyl)-amine]	–	506	185	1200	16
–	COc1ccc2cnc(Nc3ccc(N4CCN(C(=O)CN)CC4)cc3)nc2c1C(C)C [Example 35, 2-Amino-1-{4-[4-(8-Isopropyl-7-methoxy-quinazolin-2-ylamino)-phenyl]-piperazin-1-yl}-ethanone]	183 to 185 °C	800	191	1100	10
–	COc1ccc2cnc(Nc3ccc(N4CCC(N)C4)cc3)nc2c1C(C)C (centres unmarked) [Example 37, [4-(3-Amino-pyrrolidin-1-yl)-phenyl]-(8-isopropyl-7-methoxy-quinazolin-2-yl)-amine]	–	1300	296	2550	11
–	COc1ccc2cnc(Nc3ccc(N4CCOCC4)c(F)c3)nc2c1C(C)C [Example 38, (3-Fluoro-4-morpholin-4-yl-phenyl)-(8-isopropyl-7-methoxy-quinazolin-2-yl)-amine]	202 to 203 °C	1230	451	2750	–
–	COc1ccc2cnc(Nc3ccc(N4CCOCC4)cc3)nc2c1C(C)C [Example 39, (8-Isopropyl-7-methoxy-quinazolin-2-yl)-(4-morpholin-4-yl-phenyl)-amine]	–	1970	665	4400	52
–	COc1ccc2cnc(Nc3ccc(N4CCN(C(=O)CN)CC4)cc3)nc2c1C1CCCC1 [Example 40, 2-Amino-1-{4-[4-(8-cyclopentyl-7-methoxy-quinazolin-2-ylamino)-phenyl]-piperazin-1-yl}-ethanone]	202 °C	270	95	450	2
–	COc1ccc2cnc(Nc3ccc(N4CCC(N)C4)cc3)nc2c1C1CCCC1 (centres unmarked) [Example 41, [4-(3-Amino-pyrrolidin-1-yl)-phenyl]-(8-cyclopentyl-7-methoxy-quinazolin-2-yl)-amine]	220 to 221 °C	398	203	950	116
–	COc1ccc2cnc(Nc3ccc(N4CCN(C(=O)C(N)CC(C)C)CC4)cc3)nc2c1C1CCCC1 (centres unmarked) [Example 42, 2-Amino-1-{4-[4-(8-cyclopentyl-7-methoxy-quinazolin-2-ylamino)-phenyl]-piperazin-1-yl}-4-methyl-pentan-1-one]	130 to 132 °C	333	103	500	–
70	COc1ccc2cnc(Nc3ccc(N4CCOCC4)c(F)c3)nc2c1C1CCCC1 [Example 43, (8-Cyclopentyl-7-methoxy-quinazolin-2-yl)-(3-fluoro-4-morpholin-4-yl-phenyl)-amine]	252 to 253 °C	> 5000	966	> 5000	–
–	COc1ccc2cnc(Nc3ccc(N4CCOCC4)cc3)nc2c1C1CCCC1 [Example 44, (8-Cyclopentyl-7-methoxy-quinazolin-2-yl)-(4-morpholin-4-yl-phenyl)-amine]	243 to 244 °C	1590	383	650	18
275	COc1ccc2cnc(Nc3ccc(N4CCC(NC(=O)OC(C)(C)C)C4)cc3)nc2c1C1CCCC1 (centres unmarked) [Example 45, {1-[4-(8-Cyclopentyl-7-methoxy-quinazolin-2-ylamino)-phenyl]-pyrrolidin-3-yl}-carbamic Acid Tert-butyl Ester]	157 °C (dec.)	> 1700	2390	6900	–
85	COc1ccc2cnc(Nc3ccc(N4CCCCC4)c(F)c3)nc2c1C1CCCC1 [Example 49, (8-Cyclopentyl-7-methoxy-quinazolin-2-yl)-(3-Fluoro-4-piperidin-1-yl-phenyl)-amine]	200 to 201 °C	> 5000	–	8000	–

Molecule	IC50 (cdk4/D; [1]) [nM]	melting point	IC50 (cdc2/cyclinB) [nM]	IC50 (cdk2/A) [nM]	IC50 (cdk2/cyclinE) [nM]	IC50 (cdk4/D) [nM]
COc1ccc2cnc(Nc3ccc(N4CCNCC4)cc3)nc2c1C1CCCC1 [Example 27, (8-Cyclopentyl-7-methoxy-quinazolin-2-yl)-(4-piperazin-1-yl-phenyl)-amine]	1	–	132	28	250	–
(8-Isopropyl-7-methoxy-quinazolin-2-yl)-(4-piperidin-1-yl-phenyl)-amine [Example 47]	75	–	1070	264	4100	–
(8-Isopropyl-7-methoxy-quinazolin-2-yl)-(4′-methoxy-biphenyl-4-yl)-amine [Example 36]	225	–	–	–	> 5000	–
